The text below walks through data of ChEMBL document CHEMBL1201862, “PubChem BioAssay data set” (2004).

Test [1] concerns the target T1, Polyadenylate-binding protein 1 (Homo sapiens, UniProt P11940). As to the kind of experiment: PABP1 MLLE–PAM2 binding inhibitor potency, dose response, biochemical, fluorescence polarization, FITC-PAM2 peptide (AID 602259). Type of test: functional. The following applies: read-out: IC50_Mean. (Polarisation of emitted light reports the rotation of a fluorescent probe.)

For test [2], the target named is T1, Polyadenylate-binding protein 1. As to the kind of experiment: PABP1 MLLE–PAM2 interaction inhibitors, dose response, miRNA deadenylation inhibitor project, biochemical, fluorescence polarization, Cy5-PAM2 peptide, secondary (AID 602260). The following applies: read-out: IC50_Mean. It is filed as functional.
In test [3] the target is DNA dC->dU-editing enzyme APOBEC-3G (Homo sapiens, UniProt Q9HC16). In words: Dose Response confirmation of small molecule APOBEC3G DNA Deaminase Inhibitors via a fluorescence-based single-stranded DNA deaminase assay. [Related pubchem assays (depositor defined):AID493012, AID493028]. It is filed as functional.
A further test has as its system H9c2. As to the kind of experiment: cells. It is filed as functional, cell-based. As to conditions: Rattus norvegicus, H9c2, Myocardium.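 Also: confirmatory concentration-response retest of ultra-high-throughput screening hits for modulation of myocardial damage; cell death induced by hydrogen peroxide oxidative stress; compound pretreatment for 60 min then peroxide exposure for 2 h; potency is for protecting the cells against peroxide damage rather than for killing them.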
The target of another test is T2, Exodeoxyribonuclease V (Escherichia coli (strain K12), UniProt P04993+P07648+P08394).
T2 sequence (P04993 whole entry): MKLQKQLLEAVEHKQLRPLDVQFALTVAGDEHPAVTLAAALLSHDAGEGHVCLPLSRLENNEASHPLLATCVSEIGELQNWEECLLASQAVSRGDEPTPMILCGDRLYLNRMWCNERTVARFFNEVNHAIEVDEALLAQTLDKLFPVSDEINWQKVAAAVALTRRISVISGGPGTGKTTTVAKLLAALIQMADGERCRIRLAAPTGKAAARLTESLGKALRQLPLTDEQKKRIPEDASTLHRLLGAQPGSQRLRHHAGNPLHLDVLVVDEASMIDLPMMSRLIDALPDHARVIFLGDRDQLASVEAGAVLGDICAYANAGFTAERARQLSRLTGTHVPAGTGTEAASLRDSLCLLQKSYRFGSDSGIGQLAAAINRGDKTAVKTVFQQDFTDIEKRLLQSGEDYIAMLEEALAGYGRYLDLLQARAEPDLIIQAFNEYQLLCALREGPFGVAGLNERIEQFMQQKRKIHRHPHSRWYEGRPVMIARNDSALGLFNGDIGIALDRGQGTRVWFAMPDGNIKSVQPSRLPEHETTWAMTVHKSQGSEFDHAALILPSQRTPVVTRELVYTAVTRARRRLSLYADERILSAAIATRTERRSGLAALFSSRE
T2 sequence (P07648 whole entry): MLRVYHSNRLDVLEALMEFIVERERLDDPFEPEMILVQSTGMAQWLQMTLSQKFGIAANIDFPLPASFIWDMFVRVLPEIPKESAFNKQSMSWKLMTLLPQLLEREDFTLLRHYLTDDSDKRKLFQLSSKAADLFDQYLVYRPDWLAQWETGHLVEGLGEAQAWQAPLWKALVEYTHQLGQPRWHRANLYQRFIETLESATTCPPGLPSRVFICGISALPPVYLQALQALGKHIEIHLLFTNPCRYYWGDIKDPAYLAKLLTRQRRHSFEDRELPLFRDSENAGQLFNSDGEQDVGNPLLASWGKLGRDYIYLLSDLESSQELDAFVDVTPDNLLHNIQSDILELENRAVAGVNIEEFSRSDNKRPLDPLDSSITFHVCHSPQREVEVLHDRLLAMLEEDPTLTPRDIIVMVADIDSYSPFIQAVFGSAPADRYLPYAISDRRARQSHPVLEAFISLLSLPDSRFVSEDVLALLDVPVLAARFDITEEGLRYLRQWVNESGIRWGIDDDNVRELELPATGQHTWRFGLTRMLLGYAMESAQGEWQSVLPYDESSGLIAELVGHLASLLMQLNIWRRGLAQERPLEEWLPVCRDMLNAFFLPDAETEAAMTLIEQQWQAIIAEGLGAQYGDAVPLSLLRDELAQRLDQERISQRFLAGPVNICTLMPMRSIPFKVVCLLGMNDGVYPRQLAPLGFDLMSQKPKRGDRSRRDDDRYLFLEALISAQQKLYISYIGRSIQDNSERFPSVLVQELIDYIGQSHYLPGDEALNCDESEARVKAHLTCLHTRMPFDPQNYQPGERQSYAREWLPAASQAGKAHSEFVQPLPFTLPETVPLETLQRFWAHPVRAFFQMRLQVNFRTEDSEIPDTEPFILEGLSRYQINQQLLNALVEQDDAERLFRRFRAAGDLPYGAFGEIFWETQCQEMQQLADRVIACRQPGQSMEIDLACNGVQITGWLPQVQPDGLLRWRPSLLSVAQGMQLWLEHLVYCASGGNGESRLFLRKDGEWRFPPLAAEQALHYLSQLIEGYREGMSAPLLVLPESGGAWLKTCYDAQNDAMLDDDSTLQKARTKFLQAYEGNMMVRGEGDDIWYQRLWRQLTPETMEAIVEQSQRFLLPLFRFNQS
T2 sequence (P08394 whole entry): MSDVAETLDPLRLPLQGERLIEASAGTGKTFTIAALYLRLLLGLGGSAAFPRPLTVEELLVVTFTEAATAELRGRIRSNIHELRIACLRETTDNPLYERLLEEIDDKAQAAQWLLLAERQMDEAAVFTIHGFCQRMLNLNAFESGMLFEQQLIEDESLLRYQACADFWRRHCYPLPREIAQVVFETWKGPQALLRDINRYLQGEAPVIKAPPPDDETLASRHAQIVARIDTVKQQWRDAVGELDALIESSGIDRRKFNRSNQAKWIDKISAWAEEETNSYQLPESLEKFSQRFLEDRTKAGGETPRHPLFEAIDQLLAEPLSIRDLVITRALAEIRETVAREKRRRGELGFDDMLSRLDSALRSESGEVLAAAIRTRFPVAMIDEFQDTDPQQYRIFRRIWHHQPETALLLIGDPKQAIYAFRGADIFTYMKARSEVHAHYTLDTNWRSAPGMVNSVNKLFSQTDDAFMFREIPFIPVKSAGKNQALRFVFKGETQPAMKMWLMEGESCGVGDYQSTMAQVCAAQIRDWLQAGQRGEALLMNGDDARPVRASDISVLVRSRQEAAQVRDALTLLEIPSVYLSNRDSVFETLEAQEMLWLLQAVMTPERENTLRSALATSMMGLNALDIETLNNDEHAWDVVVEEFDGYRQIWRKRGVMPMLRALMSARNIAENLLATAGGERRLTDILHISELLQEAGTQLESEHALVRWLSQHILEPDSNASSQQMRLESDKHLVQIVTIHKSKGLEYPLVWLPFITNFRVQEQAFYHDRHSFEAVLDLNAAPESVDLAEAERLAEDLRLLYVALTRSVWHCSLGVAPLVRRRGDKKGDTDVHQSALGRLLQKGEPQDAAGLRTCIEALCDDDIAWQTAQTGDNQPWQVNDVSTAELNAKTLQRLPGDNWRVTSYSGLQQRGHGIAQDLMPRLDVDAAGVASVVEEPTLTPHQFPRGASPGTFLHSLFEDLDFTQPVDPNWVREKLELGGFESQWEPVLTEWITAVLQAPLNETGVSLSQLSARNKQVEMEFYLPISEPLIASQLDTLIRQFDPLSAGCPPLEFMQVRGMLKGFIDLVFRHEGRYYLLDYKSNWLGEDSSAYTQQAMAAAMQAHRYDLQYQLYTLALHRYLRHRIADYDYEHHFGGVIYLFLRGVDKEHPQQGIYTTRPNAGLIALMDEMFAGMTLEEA
As to the kind of experiment: E. coli RecBCD inhibitors, dose response, counter-screen for AddAB inhibitor project, absorbance, V66 E. coli, mutant T4 phage (AID 492957). Type of test: functional, cell-based, Escherichia coli str. K-12 substr. MG1655. On the technique in general: Counterscreens check selectivity or assay interference.

The target in a further test is T3, Caspase-3 (Homo sapiens, UniProt P42574).
T3 sequence (P42574 whole entry): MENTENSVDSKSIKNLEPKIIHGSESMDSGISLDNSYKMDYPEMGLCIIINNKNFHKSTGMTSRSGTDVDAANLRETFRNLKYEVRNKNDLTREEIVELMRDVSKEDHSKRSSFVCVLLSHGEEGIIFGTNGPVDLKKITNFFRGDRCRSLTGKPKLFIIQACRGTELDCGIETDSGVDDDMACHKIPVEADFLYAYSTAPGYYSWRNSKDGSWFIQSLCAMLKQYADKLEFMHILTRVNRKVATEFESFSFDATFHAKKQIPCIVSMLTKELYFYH
In words: procaspase-3 activators, dose response, biochemical, absorbance (AID 489014).

In a further test the test system is INS1. In words: beta cell apoptosis inhibitors, cytokine rescue, dose response, luminescence, retest (AID 449756).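 Also: cell death triggered by IL-1 beta plus TNF-alpha plus IFN-gamma mixture; protective hits raise ATP signal compared with cytokine alone wells.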 The following applies: Rattus norvegicus. It is filed as functional, cell-based.
A further test has as its target Caspase-7 (Homo sapiens, UniProt P55210). In words: procaspase-7 activators, dose response, counter-screen for procaspase-3 activator project, biochemical, absorbance (AID 489013).
Test [4] can be described thus: Luminescence Cell-Based Dose Response HTS to Identify Inhibitors of 5'UTR Stem-Loop Driven Prion Protein mRNA Translation in H4 Neuroglioblastoma Cells. [Related pubchem assays: 1827 (Project Summary), 1813 (Primary HTS)]. It is filed as functional.
A short description of test [5]: inhibitors of firefly luciferase expression or activity, dose response, H4 neuroglioma cells, luminescence (AID 1990). It is filed as functional, cell-based.
Test [6] is described as follows: inhibitors of SNCA 5'UTR-driven reporter translation, confirmation, H4 neuroglioma cells, luminescence (AID 1988). It is filed as functional, cell-based.
Test [7] in a line: Counterscreen for AddAB inhibitors: absorbance-based bacterial cell-based high throughput dose response assay for inhibitors of bacterial viability. [Related pubchem assays (depositor defined):AID435030, AID449728, AID449731, AID488942, AID488955, AID488956]. Type of test: functional.
For test [8], the target named is T4, Neuropeptides B/W receptor type 1 (Homo sapiens, UniProt P48145).
T4 sequence (P48145 whole entry): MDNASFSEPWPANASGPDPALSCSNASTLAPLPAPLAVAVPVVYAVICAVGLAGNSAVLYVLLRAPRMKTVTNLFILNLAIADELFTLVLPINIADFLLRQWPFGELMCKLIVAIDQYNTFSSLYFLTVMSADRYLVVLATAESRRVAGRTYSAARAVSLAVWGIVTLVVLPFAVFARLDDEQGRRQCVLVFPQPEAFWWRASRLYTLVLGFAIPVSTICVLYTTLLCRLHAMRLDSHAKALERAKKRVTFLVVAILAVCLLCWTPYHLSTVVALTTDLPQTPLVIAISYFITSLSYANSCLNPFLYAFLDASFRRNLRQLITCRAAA
In words: GPR7 antagonist potency, late-stage follow-up, cell-based, fluorescence, dose response (AID 463251). Type of test: functional.

Test [9] deals with Melanin-concentrating hormone receptor 1 (Homo sapiens, UniProt Q99705). In words: Late-stage fluorescence-based counterscreen for antagonists of the G-protein coupled receptor 7 (GPR7): cell-based dose response assay to identify antagonists of the melanin-concentrating hormone receptor 1 (MCHR1). [Related pubchem assays (depositor defined):AID1861, AID1880, AID1952, AID2148, AID2251, AID2257, AID485339]. Type of test: functional.

Test [10] addresses Aryl hydrocarbon receptor (Homo sapiens, UniProt P35869). In words: Luminescence-based cell-based high throughput dose response assay for activators of the Aryl Hydrocarbon Receptor (AHR). [Related pubchem assays: 2796 (Primary screen (AHR activators in singlicate)), 2845 (Confirmation screen (AHR activators in triplicate)), 434939 (Counterscreen (PXR activators in triplicate)), 2804 (Summary (AHR activators))]. It is filed as ADME.

For test [11], the target named is Eukaryotic translation initiation factor 4E (Mus musculus, UniProt P63073). In words: eIF4E–eIF4G protein interaction inhibitors, dose response, biochemical, TR-FRET (AID 855).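 Also: potency for disrupting eIF4E binding to eIF4GI seen as loss of FRET.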 Type of test: functional. (In general: Time-resolved FRET reads energy transfer from a long-lived donor to a nearby acceptor.)

Activity calls are given as the source filed them. Bounds are passed on as bounds.

Broadly, the EC50 is the concentration needed to bring the measured effect to its halfway point. For orientation: AC50 means the midpoint of the concentration-response curve, whichever way the signal moves.

T1 sequence (P11940 whole entry): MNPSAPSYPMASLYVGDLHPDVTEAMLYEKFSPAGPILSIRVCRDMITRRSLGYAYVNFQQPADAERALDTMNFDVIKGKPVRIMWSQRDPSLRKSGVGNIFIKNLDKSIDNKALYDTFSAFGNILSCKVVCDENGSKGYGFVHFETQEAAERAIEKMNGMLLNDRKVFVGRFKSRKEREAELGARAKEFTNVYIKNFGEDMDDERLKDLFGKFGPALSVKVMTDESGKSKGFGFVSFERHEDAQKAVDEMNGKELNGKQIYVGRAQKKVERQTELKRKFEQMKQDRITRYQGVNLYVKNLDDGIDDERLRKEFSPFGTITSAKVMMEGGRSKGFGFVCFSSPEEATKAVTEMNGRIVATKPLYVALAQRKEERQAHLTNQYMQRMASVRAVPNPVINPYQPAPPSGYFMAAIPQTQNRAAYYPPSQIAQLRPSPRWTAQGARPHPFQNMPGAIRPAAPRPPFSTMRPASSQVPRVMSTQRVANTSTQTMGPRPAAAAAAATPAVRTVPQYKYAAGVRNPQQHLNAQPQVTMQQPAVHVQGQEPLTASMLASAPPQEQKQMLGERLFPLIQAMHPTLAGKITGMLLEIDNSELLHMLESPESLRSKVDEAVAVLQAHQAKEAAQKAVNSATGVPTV
Sequence of Caspase-7 (P55210 24-198 limits assumed): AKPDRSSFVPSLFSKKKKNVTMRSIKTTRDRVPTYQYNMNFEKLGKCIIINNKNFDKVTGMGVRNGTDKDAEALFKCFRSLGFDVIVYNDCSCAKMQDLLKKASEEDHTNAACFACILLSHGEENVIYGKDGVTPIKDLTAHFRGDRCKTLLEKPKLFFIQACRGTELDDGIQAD
Sequence of Caspase-7 (P55210 207-303 limits assumed): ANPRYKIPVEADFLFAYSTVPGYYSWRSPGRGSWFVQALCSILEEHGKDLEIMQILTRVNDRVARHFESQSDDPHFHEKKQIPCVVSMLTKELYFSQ
Sequence of Eukaryotic translation initiation factor 4E (P63073 whole entry): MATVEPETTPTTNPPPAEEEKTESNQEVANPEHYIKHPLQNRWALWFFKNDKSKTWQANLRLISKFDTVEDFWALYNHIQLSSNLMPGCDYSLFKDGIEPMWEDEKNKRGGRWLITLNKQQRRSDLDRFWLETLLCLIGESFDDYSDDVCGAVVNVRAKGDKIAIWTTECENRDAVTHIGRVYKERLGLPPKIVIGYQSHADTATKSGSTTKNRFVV
Sequence of Aryl hydrocarbon receptor (P35869 whole entry): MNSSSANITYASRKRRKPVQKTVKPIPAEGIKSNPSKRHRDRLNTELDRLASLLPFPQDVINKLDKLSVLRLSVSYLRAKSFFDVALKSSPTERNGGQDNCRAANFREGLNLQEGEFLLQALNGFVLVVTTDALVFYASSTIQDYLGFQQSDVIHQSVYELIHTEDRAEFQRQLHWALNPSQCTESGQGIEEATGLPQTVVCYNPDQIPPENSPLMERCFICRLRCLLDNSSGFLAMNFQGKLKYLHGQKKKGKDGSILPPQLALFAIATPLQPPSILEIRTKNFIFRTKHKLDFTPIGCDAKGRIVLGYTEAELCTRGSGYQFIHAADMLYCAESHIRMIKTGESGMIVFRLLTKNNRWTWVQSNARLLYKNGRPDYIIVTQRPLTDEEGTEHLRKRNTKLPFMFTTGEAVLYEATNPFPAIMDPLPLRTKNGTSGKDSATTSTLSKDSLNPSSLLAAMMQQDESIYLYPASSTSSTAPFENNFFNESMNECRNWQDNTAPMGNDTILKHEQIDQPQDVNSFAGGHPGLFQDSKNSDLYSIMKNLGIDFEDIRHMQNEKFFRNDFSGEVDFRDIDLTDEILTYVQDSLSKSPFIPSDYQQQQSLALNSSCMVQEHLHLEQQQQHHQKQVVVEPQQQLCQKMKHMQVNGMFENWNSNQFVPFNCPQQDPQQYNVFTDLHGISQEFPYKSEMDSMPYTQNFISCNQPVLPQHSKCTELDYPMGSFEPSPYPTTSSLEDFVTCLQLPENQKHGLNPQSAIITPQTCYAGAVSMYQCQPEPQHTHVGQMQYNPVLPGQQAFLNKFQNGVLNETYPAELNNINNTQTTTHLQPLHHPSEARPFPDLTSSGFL
Sequence of Melanin-concentrating hormone receptor 1 (Q99705 whole entry): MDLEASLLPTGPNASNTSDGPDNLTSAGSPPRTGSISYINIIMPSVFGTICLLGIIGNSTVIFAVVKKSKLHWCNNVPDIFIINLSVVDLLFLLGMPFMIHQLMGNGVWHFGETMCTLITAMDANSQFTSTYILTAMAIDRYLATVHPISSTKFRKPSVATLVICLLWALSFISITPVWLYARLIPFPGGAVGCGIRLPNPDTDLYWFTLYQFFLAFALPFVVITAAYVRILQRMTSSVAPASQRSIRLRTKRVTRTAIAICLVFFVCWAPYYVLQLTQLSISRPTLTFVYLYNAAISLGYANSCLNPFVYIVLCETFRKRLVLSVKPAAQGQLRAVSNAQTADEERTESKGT
Sequence of DNA dC->dU-editing enzyme APOBEC-3G (Q9HC16 whole entry): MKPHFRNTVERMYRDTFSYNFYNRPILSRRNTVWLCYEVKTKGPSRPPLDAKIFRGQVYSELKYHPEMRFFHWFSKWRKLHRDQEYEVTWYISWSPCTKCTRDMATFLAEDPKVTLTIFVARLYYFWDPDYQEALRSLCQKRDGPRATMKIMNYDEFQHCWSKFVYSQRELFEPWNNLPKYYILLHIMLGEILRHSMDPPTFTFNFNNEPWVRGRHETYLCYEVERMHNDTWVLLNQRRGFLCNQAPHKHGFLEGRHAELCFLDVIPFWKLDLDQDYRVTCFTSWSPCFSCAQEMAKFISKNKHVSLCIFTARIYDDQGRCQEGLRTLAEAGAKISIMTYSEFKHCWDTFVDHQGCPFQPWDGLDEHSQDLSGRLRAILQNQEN

For the compound `O=C(Nc1ccc(N2CCOCC2)c(S(=O)(=O)Nc2ccc(Cl)cc2)c1)c1cnccn1`, the results for the IC50 in test [1], in test [2] and in test [3] were > 66 µM (inactive), > 66 µM (inactive) and 51.6 µM (active), respectively.
For the compound `CCCNC(=O)c1ccc2c(O)c(O)c(-c3ccc(C)cc3)nc2c1`, the IC50 was > 79 µM (inactive) with H9c2, > 119 µM (inactive) at Exodeoxyribonuclease V and > 119 µM (inactive) in [7]. Also, the EC50 was > 85.3 µM (inactive) at Caspase-3; > 85.3 µM (inactive) at Caspase-7; > 120 µM (not active) in [4]; 9.71 µM (active) in test [5]; 8.86 µM (active) in [6]. Besides, in the test with INS1, the concentration at half-maximal activity (AC50) is 7.24 µM (active).
Regarding `Cc1ccc(-c2cc(C(F)(F)F)c(C#N)c(SCCC#N)n2)o1`, the EC50 on Caspase-3 and on Caspase-7 was > 85.2 µM (inactive) each time.
As to `CCOc1ccc(COc2c(Cl)cnn(-c3ccc(C)cc3)c2=O)cc1OCC`, the IC50 in [8] is > 20 µM (inactive).
With `COc1cc(F)ccc1Oc1c(Cl)cnn(-c2ccc(C)cc2)c1=O`, the IC50 in [9] is 9.5 µM (active); in test [8], 9.7 µM (active).
Turning to `O=C(N/N=C/c1c[nH]c2ccccc12)C1COc2ccccc2O1` (centres undefined), in test [10], the 50% effective concentration (EC50) is 5.67 µM (active). Besides, the IC50 in test [11] is > 64 µM (inactive).
